In publication doi:10.1101/2025.02.12.637899v1 (biorxiv, 2025):
Read-outs that look alike come from different tables or passages of the source. One block for each compound: values may come before it.

How the values were obtained:
[1] = biological target: T1, hP2X7R (full-length wild-type human P2X7 receptor) (Homo sapiens, UniProt Q99572); experiment: two-electrode voltage clamp, Xenopus oocytes; type: cell-based
T1 construct: gene P2RX7; full-length wild-type homotrimer; structures: C-terminal GFP, 3C site and His tag, digested with HRV 3C, from HEK293 / HEK293 GNTI- cells; BLI: biotinylated receptor; TEVC: untagged in Xenopus oocytes; calcium influx: 1321N1 cells; ethidium uptake: HEK293 cells
T1 sequence (Q99572 1-595): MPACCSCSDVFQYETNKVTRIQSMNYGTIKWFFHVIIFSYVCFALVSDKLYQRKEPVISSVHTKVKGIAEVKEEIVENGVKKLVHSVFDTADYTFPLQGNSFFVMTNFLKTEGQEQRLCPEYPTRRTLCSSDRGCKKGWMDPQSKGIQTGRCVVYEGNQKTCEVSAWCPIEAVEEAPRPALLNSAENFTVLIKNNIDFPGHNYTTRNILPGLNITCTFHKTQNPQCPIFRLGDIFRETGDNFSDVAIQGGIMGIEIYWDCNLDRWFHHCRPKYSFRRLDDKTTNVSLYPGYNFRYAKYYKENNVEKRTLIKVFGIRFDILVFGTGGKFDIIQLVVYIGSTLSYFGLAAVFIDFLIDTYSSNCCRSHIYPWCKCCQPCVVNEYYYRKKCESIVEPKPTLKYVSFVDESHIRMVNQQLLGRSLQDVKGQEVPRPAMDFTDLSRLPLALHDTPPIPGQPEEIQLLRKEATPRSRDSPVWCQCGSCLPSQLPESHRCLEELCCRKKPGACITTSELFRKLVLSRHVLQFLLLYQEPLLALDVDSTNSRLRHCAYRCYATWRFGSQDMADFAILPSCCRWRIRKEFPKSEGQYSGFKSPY

[2] = biological target: T2, rP2X7R (full-length wild-type rat P2X7 receptor) (Rattus norvegicus, UniProt Q64663); experiment: two-electrode voltage clamp, Xenopus oocytes; type: cell-based
T2 construct: gene P2rx7; full-length wild-type homotrimer; untagged in Xenopus oocytes for TEVC
T2 sequence (Q64663 1-595): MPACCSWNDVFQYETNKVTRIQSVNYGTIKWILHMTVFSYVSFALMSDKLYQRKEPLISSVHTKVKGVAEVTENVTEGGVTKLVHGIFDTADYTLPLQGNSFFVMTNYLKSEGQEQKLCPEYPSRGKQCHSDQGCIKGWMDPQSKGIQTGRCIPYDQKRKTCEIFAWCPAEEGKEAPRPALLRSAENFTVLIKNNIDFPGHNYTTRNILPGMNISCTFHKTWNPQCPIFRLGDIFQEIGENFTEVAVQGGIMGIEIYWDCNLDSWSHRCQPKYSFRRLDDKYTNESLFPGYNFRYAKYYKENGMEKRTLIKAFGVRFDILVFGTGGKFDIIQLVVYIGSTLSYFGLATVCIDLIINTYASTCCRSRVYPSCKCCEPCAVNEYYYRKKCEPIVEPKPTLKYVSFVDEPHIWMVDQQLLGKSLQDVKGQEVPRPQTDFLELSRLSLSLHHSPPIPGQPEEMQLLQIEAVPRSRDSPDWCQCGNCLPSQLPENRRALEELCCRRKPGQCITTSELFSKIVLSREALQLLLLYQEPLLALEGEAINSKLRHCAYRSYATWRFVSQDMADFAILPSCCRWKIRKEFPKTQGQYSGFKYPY

[3] = biological target: T3, mP2X7R (full-length wild-type mouse P2X7 receptor) (Mus musculus, UniProt Q9Z1M0); experiment: two-electrode voltage clamp, Xenopus oocytes; type: cell-based
T3 construct: gene P2rx7; full-length wild-type homotrimer; untagged in Xenopus oocytes for TEVC
T3 sequence (Q9Z1M0 1-595): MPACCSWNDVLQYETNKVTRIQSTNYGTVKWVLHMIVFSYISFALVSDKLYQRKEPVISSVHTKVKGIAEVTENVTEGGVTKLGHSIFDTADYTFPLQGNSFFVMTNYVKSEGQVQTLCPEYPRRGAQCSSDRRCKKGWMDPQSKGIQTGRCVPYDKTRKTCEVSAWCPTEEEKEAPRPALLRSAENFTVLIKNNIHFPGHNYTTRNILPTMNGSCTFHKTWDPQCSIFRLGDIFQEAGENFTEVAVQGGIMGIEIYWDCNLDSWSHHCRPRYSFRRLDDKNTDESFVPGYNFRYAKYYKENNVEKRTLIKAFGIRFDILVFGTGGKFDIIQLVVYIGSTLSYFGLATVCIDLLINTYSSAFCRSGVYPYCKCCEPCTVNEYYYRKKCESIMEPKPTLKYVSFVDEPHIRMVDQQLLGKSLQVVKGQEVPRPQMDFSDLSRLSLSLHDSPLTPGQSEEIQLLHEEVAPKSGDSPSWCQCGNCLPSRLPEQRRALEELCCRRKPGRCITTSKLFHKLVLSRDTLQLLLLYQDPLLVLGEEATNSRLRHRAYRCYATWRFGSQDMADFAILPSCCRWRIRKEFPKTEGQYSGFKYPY

[4] = biological target: T1, hP2X7R (full-length wild-type human P2X7 receptor); experiment: bio-layer interferometry, kinetic […] fit; type: binding
[5] = biological target: T2, rP2X7R (full-length wild-type rat P2X7 receptor); experiment: calcium influx (Fluo-4), […]1 cells; type: cell-based
[6] = biological target: T3, mP2X7R (full-length wild-type mouse P2X7 receptor); experiment: calcium influx (Fluo-4), […]1 cells; type: cell-based
[7] = biological target: T1, hP2X7R (full-length wild-type human P2X7 receptor); experiment: ethidium bromide accumulation, HEK293 cells expressing hP2X7R; type: cell-based
Excerpt: ethidium bromide accumulation, HEK293 cells expressing hP2X7R on hP2X7R (full-length wild-type human P2X7 receptor)

[8] = biological target: T4, hP2X3R (human P2X3 receptor, S15V mutant) (Homo sapiens, UniProt P56373, S15V); experiment: calcium influx (Calcium […]), […]1 cells; type: cell-based
T4 construct: gene P2RX3; S15V mutant to prevent fast desensitization; stably expressed in 1321N1 astrocytoma cells by retroviral system
T4 sequence (P56373 1-397 S15V): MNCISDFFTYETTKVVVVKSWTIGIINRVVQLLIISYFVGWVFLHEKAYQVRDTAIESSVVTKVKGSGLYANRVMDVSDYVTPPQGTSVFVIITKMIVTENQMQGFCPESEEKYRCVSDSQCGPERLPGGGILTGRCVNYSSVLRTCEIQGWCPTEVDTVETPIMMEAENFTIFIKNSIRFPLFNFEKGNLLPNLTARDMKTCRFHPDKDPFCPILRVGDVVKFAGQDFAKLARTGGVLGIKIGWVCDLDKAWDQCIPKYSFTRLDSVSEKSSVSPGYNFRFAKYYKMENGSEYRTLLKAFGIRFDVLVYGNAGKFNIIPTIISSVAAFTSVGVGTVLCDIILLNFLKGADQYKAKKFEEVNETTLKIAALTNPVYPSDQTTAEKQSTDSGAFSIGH

[9] = biological target: T5, hP2X2R (human P2X2 receptor) (Homo sapiens, UniProt Q9UBL9); experiment: calcium influx (Fluo-4), […]1 cells; type: cell-based
T5 construct: gene P2RX2; stably expressed in 1321N1 astrocytoma cells by retroviral system
T5 sequence (Q9UBL9 1-471): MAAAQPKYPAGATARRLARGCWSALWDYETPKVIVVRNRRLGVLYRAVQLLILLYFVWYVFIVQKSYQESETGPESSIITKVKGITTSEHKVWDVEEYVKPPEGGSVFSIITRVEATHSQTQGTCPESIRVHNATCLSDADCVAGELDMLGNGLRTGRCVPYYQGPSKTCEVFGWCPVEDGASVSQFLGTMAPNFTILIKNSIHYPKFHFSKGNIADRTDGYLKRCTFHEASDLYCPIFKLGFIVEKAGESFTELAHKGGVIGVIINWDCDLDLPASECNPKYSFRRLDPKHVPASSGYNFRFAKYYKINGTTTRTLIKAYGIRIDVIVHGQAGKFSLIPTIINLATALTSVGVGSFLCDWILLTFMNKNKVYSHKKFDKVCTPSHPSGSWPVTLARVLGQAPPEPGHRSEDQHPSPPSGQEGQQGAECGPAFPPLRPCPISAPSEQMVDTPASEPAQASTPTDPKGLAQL

[10] = biological target: T6, hP2X4R (human P2X4 receptor) (Homo sapiens, UniProt Q99571); experiment: calcium influx (Fluo-4), […]1 cells; type: cell-based
T6 construct: gene P2RX4; stably expressed in 1321N1 astrocytoma cells by retroviral system
T6 sequence (Q99571 1-388): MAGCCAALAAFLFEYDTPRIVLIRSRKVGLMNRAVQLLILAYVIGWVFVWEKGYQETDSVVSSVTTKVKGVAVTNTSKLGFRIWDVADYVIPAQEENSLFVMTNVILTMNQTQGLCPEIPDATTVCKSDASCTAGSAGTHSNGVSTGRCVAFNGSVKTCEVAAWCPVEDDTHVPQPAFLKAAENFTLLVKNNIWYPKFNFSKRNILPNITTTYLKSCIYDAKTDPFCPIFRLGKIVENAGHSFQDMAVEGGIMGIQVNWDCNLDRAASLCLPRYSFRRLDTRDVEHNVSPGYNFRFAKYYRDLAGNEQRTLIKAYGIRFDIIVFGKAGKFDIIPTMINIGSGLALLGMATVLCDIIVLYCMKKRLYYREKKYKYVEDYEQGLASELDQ

[11] = biological target: T1, hP2X7R (full-length wild-type human P2X7 receptor); experiment: calcium influx (Fluo-4), […]1 cells; type: cell-based; settings: agonist BzATP at EC80; allosteric antagonist, classical allosteric site; pH 7.4

SMILES: Nc1ncnc2c1ncn2[C@@H]1O[C@H](COP(=O)(O)OP(=O)(O)OP(=O)(O)O)[C@@H](O)[C@H]1O [ATP]
EC50 [1]: 89000 ± 8300 nM
EC50 [2]: 34000 ± 8400 nM
EC50 [3]: 70000 ± 17000 nM
Kd [4]: 650 ± 120 nM

SMILES: CC12CC3CC1(C)C1(C)CC3(C(=O)NNc3ccccc3Cl)CC21C [UB-MBX-46]
IC50 ([5]; agonist BzATP at EC80, pH 7.4): 40.6 ± 10.4 nM
IC50 ([6]; agonist BzATP at EC80, pH 7.4): 4.52 ± 0.72 nM

SMILES: O=C(NNc1ccccc1Cl)C12C3C4C5C3C1C5C42 (stereo not drawn) [UB-ALT-P38]
IC50 [7]: 430 ± 64 nM

The next lines start with the values.

inhibition at 10 µM [8]: 86 ± 9%
IC50 [5]: 120 ± 50 nM
inhibition at 10 µM [9]: 29 ± 7%
inhibition at 10 µM [10]: 44 ± 14%
IC50 [6]: 150 ± 27 nM
IC50 [11]: 18 ± 8.3 nM
SMILES: O=C(NNc1ccccc1Cl)C12CC3CC(CC(C3)C1)C2 [UB-ALT-P30]

IC50 [7]: > 1000 nM
SMILES: CC12CC3(C)CC(C)(C1)CC(C(=O)NNc1ccccc1Cl)(C2)C3 [UB-ALT-P37]

IC50 [7]: 477 ± 170 nM
SMILES: CC12CC3CC(C)(C1)CC(C(=O)NNc1ccccc1Cl)(C3)C2 [UB-ALT-P36]
